Results on 22 molecules are retold here after PubChem BioAssay AID330 (DTP/NCI, 2004).

Structures are written as SMILES. Several values for one entry are separate records, joined by “and”; a condition that tells them apart may be missing. Identical values can stand only once. Toxic doses and inconclusive results are not listed.

The assay has as its system P388 leukemia ip, CD2F1 mice, survival T/C. Briefly: NCI In Vivo Anticancer Drug Screen. Data for tumor model P388 Leukemia (intraperitoneal) in CD2F1 (CDF1) mice. Conditions: endpoint: median survival time, higher = longer survival. Summed up:
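Mice carrying the transplanted tumor received test compound or vehicle. Survival was recorded in each group, and the value is the treated-group measurement divided by that of the vehicle-treated control group.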

The mark [1] stands for this setting: dose: 50.0 mg/kg/injection, schedule: Q01DX009 (ip), vehicle: Klucel (hydroxypropylcellulose) (HPC).
[2] abbreviates: dose: 100.0 mg/kg/injection, schedule: Q01DX009 (ip), vehicle: Klucel (hydroxypropylcellulose) (HPC).
Where [3] appears, read: dose: 200.0 mg/kg/injection, schedule: Q01DX009 (ip), vehicle: Klucel (hydroxypropylcellulose) (HPC).
Setting [4] is: dose: 60.0 mg/kg/injection, schedule: Q01DX005 (ip), vehicle: Klucel (hydroxypropylcellulose) (HPC).
[5] abbreviates: dose: 120.0 mg/kg/injection, schedule: Q01DX005 (ip), vehicle: Klucel (hydroxypropylcellulose) (HPC).
Where [6] appears, read: dose: 240.0 mg/kg/injection, schedule: Q01DX005 (ip), vehicle: Klucel (hydroxypropylcellulose) (HPC).
Where [7] appears, read: dose: 30.0 mg/kg/injection, schedule: Q01DX005 (ip), vehicle: saline with Tween-80.
The mark [8] stands for this setting: dose: 60.0 mg/kg/injection, schedule: Q01DX005 (ip), vehicle: saline with Tween-80.
Where [9] appears, read: dose: 50.0 mg/kg/injection, schedule: Q01DX001 (ip), vehicle: saline with Tween-80.
Setting [10] is: dose: 100.0 mg/kg/injection, schedule: Q01DX001 (ip), vehicle: saline with Tween-80.
Where [11] appears, read: dose: 100.0 mg/kg/injection, schedule: Q01DX009 (ip), vehicle: saline with Tween-80.
[12] abbreviates: dose: 200.0 mg/kg/injection, schedule: Q01DX009 (ip), vehicle: saline with Tween-80.
Setting [13] is: dose: 50.0 mg/kg/injection, schedule: Q01DX005 (ip), vehicle: Klucel (hydroxypropylcellulose) (HPC).
[14] abbreviates: dose: 100.0 mg/kg/injection, schedule: Q01DX005 (ip), vehicle: Klucel (hydroxypropylcellulose) (HPC).
Setting [15] is: dose: 200.0 mg/kg/injection, schedule: Q01DX005 (ip), vehicle: Klucel (hydroxypropylcellulose) (HPC).

Consider `CN(C)Cc1c(N=Nc2cccc3ccccc23)[nH]c2ccccc12`, for which the T/C was 106 % of control under setting [1], 101 % of control under setting [2] and 105 % of control under setting [3].

For `CC(/C(=N/O)c1ccccc1)N1C(=O)c2ccccc2C1=O` (configuration not stated), the T/C reads like this: under setting [4], 100 % of control; under setting [5], 99 % of control; under setting [6], 96 % of control.

With `N#CC1=C(NC(N)=O)CCCC1`, the T/C was 106 % of control under setting [4], 100 % of control under setting [5] and 106 % of control under setting [6].

With `COc1cc(C2CC(C)(O)Oc3cc4c(cc32)OCO4)cc(OC)c1OC` (configuration not stated), the T/C under setting [7] was 104 % of control; the T/C under setting [8] was 105 % of control and 108 % of control.

`CCCCC(CC1CCCCC1)C(=O)O` (configuration not stated): the T/C is, setting by setting: under setting [9], 113 % of control; under setting [10], 109 % of control; (dose: 200.0 mg/kg/injection, schedule: Q01DX001 (ip), vehicle: saline with Tween-80) 109 % of control.

Take `CCN(CC)C(C)C(=O)c1ccc2cc(Br)c3ccccc3c2c1` (configuration not stated): the T/C reads like this: (dose: 50.0 mg/kg/injection, schedule: Q01DX005 (ip), vehicle: saline) 109 % of control; (dose: 100.0 mg/kg/injection, schedule: Q01DX005 (ip), vehicle: saline) 113 % of control.

On to `CN1CCC(=NO)CC1`, for which the T/C was 95 % of control (dose: 60.0 mg/kg/injection, schedule: Q01DX005 (ip), vehicle: saline); 89 % of control (dose: 120.0 mg/kg/injection, schedule: Q01DX005 (ip), vehicle: saline); 94 % of control (dose: 240.0 mg/kg/injection, schedule: Q01DX005 (ip), vehicle: saline).

Turning to `CC(C(O)c1ccc2cc(Br)c3ccccc3c2c1)N(C)C` (configuration not stated), the T/C was 100 % of control (dose: 50.0 mg/kg/injection, schedule: Q01DX005 (ip), vehicle: saline with Tween-80) and 91 % of control (dose: 100.0 mg/kg/injection, schedule: Q01DX005 (ip), vehicle: saline with Tween-80).

In the case of `COCC1OC(OC2OCC3OC4(OCC(O)(C(C)OC)C5OCOC54)OC3C2OC)C(OC)C(O)C1OC1OC(C)C(OC)C(OC2OC(C)C3OC4(CC(O)C(OC5CC(OC6CC(C)([N+](=O)[O-])C(OC)C(C)O6)C(OC(=O)c6c(C)c(Cl)c(O)c(Cl)c6OC)C(C)O5)C(C)O4)OC3(C)C2O)C1O` (configuration not stated), the T/C is 118 % of control (dose: 12.5 mg/kg/injection, schedule: Q01DX009 (ip), vehicle: saline); 103 % of control (dose: 25.0 mg/kg/injection, schedule: Q01DX009 (ip), vehicle: saline); 98 % of control (dose: 50.0 mg/kg/injection, schedule: Q01DX009 (ip), vehicle: saline); 105 % of control (dose: 100.0 mg/kg/injection, schedule: Q01DX009 (ip), vehicle: saline).

For `O=C(O)c1cc(S(=O)(=O)F)c(Cl)cc1Cl`, the T/C is 119 % of control under setting [8]; 104 % of control (dose: 120.0 mg/kg/injection, schedule: Q01DX005 (ip), vehicle: saline with Tween-80); 104 % of control (dose: 240.0 mg/kg/injection, schedule: Q01DX005 (ip), vehicle: saline with Tween-80).

In the case of `CCCCCCCCC#CC(=O)O`, the T/C is, setting by setting: (dose: 50.0 mg/kg/injection, schedule: Q01DX009 (ip), vehicle: saline with Tween-80) 94 % of control; under setting [11], 95 % of control; under setting [12], 86 % of control.

Take `C=CS(=O)(=O)OCCCl`: the T/C (dose: 6.25 mg/kg/injection, schedule: Q01DX009 (ip), vehicle: saline with Tween-80) is 108 % of control and 109 % of control and 111 % of control; the T/C (dose: 18.75 mg/kg/injection, schedule: Q01DX009 (ip), vehicle: saline with Tween-80) is 117 % of control.

As to `O=C1S/C(=C2\C(=O)N(CN3CCOCC3)c3ccc(Br)cc32)C(=O)N1CN1CCOCC1`, the T/C runs as follows: under setting [13], 100 % of control; under setting [14], 106 % of control; under setting [15], 102 % of control.

Turning to `O=NN(CCCl)C(=O)Oc1c(Cl)cc(Cl)cc1Cl`, the T/C was 163 % of control under setting [9]; 99 % of control (dose: 67.0 mg/kg/injection, schedule: Q01DX001 (ip), vehicle: saline with Tween-80); 193 % of control under setting [10].

For the molecule `O=C(Cn1ccnc1[N+](=O)[O-])NCCO`, the T/C is, setting by setting: (dose: 12.5 mg/kg/injection, schedule: Q01DX009 (ip), vehicle: water) 113 % of control; (dose: 25.0 mg/kg/injection, schedule: Q01DX009 (ip), vehicle: water) 105 % of control; (dose: 50.0 mg/kg/injection, schedule: Q01DX009 (ip), vehicle: water) 101 % of control; (dose: 100.0 mg/kg/injection, schedule: Q01DX009 (ip), vehicle: water) 105 % of control; (dose: 200.0 mg/kg/injection, schedule: Q01DX009 (ip), vehicle: water) 114 % of control.

As to `Cc1cc(C)cc(OC(=O)/C=C/C(=O)Oc2cc(C)cc(C)c2)c1`, the T/C runs as follows: under setting [11], 90 % of control; under setting [12], 90 % of control; (dose: 400.0 mg/kg/injection, schedule: Q01DX009 (ip), vehicle: saline with Tween-80) 90 % of control.

For `CN(CCN(C)C(=S)Cl)C(=S)Cl`, the T/C by setting is: under setting [1], 99 % of control; under setting [2], 100 % of control; under setting [3], 96 % of control.

Regarding `CCCCCCCCCCCCCCCc1ccc(OC)cc1`, the T/C reads like this: (dose: 7.5 mg/kg/injection, schedule: Q01DX009 (ip), vehicle: saline with Tween-80) 90 % of control; (dose: 15.0 mg/kg/injection, schedule: Q01DX009 (ip), vehicle: saline with Tween-80) 94 % of control; (dose: 30.0 mg/kg/injection, schedule: Q01DX009 (ip), vehicle: saline with Tween-80) 104 % of control.

With `O=C1c2ccccc2C2(O)C3c4ccccc4CCN3CN12` (configuration not stated), the T/C by setting is: under setting [13], 100 % of control; under setting [14], 101 % of control; under setting [15], 101 % of control.

On to `C[C@@]12CCCC1=[N+]1CCc3ccccc3[C@@H]1CC2=O`, for which the T/C by setting is: (dose: 100.0 mg/kg/injection, schedule: Q04DX002 (ip), vehicle: Klucel (hydroxypropylcellulose) (HPC)) 101 % of control; (dose: 200.0 mg/kg/injection, schedule: Q04DX002 (ip), vehicle: Klucel (hydroxypropylcellulose) (HPC)) 102 % of control.

On to `CCOc1ccc(O)c(CN2CCN(Cc3cc(OCC)ccc3O)CC2)c1`, for which the T/C (dose: 15.0 mg/kg/injection, schedule: Q01DX005 (ip), vehicle: saline with Tween-80) is 100 % of control; the T/C under setting [7] was 100 % of control; the T/C under setting [8] was 98 % of control and 124 % of control.

In the case of `C[CH2][Sn]([Cl])([CH2]C)[c]1cc[c]([Sn]([Cl])([CH2]C)[CH2]C)cc1`, the T/C (dose: 0.02 mg/kg/injection, schedule: Q01DX005 (ip), vehicle: Klucel (hydroxypropylcellulose) (HPC)) is 118 % of control.
